Assay results: ChEMBL document CHEMBL5136981, “Medicinal chemistry updates of novel HDACs inhibitors (2020 to present)” (Eur J Med Chem, 2022)
Each block holds one compound with its values, some of them ahead of it.

What was measured:
[1] = target: von Hippel-Lindau disease tumor suppressor/Histone deacetylase 1 (Homo sapiens) (UniProt Q13547+P40337); assay: PROTAC activity at VHL/HDAC1 in human HCT-116 cells assessed as induction of HDAC1 degradation at 1 uM incubated for 24 hrs by Western blot analysis relative to control; assay type: cell-based
[2] = target: T1, von Hippel-Lindau disease tumor suppressor/Histone deacetylase 3 (Homo sapiens, UniProt O15379+P40337); assay: PROTAC activity at VHL/HDAC3 in human HCT-116 cells assessed as induction of HDAC1 degradation at 1 uM incubated for 24 hrs by Western blot analysis relative to control; assay type: cell-based
Target sequence in this assay (O15379 whole entry, looked up): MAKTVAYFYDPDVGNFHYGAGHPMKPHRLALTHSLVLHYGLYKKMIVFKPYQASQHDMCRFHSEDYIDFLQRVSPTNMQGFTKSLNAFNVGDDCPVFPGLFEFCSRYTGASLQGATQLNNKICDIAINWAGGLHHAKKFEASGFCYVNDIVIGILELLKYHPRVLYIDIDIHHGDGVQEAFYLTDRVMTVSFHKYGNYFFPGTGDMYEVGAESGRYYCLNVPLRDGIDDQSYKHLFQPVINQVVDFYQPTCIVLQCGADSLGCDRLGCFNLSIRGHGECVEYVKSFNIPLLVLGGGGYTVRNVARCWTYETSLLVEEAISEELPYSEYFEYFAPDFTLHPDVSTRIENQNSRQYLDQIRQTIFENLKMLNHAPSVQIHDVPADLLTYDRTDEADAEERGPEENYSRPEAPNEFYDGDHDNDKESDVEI
Target sequence in this assay (P40337 whole entry, looked up): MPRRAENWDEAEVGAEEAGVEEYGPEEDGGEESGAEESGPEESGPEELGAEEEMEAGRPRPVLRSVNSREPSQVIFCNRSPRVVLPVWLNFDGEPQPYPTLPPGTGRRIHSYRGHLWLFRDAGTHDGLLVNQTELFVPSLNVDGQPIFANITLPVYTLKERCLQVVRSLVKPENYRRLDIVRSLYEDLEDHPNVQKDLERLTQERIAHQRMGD

[3] = target: von Hippel-Lindau disease tumor suppressor/Histone deacetylase 2 (Homo sapiens) (UniProt Q92769+P40337); assay: PROTAC activity at VHL/HDAC2 in human HCT-116 cells assessed as induction of HDAC1 degradation at 1 uM incubated for 24 hrs by Western blot analysis relative to control; assay type: cell-based
[4] = target: T2, von Hippel-Lindau disease tumor suppressor/Histone deacetylase 1 (Homo sapiens, UniProt P40337+Q13547); assay: PROTAC activity at VHL/LSD1/HDAC1/CoREST complex interaction (unknown origin) assessed as induction of HDAC1 degradation using Boc-(Ac)Lys-AMC as substrate incubated for 20 mins by fluorescence based assay
Homo sapiens = organism: Homo sapiens; assay: Selectivity ratio of IC50 for recombinant human HDAC6 to IC50 for recombinant human HDAC1
Histone deacetylase 1 [5] = target: T3, Histone deacetylase 1 (Homo sapiens, UniProt Q13547); assay: Inhibition of recombinant human HDAC1 using fluorogenic acetylated peptide substrate incubated for 30 mins by microplate reader analysis
HeLa = assay: Antiproliferative activity against human HeLa cells assessed as cell growth inhibition incubated for 48 hrs by MTT assay; assay type: functional, cell-based
Histone deacetylase 1 [6] = target: T3, Histone deacetylase 1; assay: Inhibition of recombinant human HDAC1 using fluorescent deacetylated substrate incubated for 15 mins by fluorescence based assay
Histone deacetylase 2 = Histone deacetylase 2 (Homo sapiens, UniProt Q92769); assay: Inhibition of recombinant human HDAC2 using fluorescent green substrate incubated for 30 mins by fluorescence based assay
[7] = Inhibition of recombinant human HDAC3/NCOR1 using fluorescent deacetylated substrate incubated for 15 mins by fluorescence based assay
Histone deacetylase 1 [8] = target: T3, Histone deacetylase 1; assay: Inhibition of HDAC1 (unknown origin) using fluorimetric substrate incubated for 30 mins by fluorogenic assay
[9] = target: Protein cereblon/Histone deacetylase 1 (Homo sapiens, UniProt Q13547+Q96SW2); assay: PROTAC activity at CRBN/HDAC1 (unknown origin) by cell based assay
[10] = target: Protein cereblon/Protein deacetylase HDAC6 (Homo sapiens, UniProt Q96SW2+Q9UBN7); assay: PROTAC activity at CRBN/HDAC6 (unknown origin) by cell based assay
[11] = target: Protein cereblon/Histone deacetylase 3 (Homo sapiens, UniProt O15379+Q96SW2); assay: PROTAC activity at CRBN/HDAC3 (unknown origin) by cell based assay
[12] = target: Protein cereblon/Histone deacetylase 2 (Homo sapiens, UniProt Q92769+Q96SW2); assay: PROTAC activity at CRBN/HDAC2 (unknown origin) by cell based assay
[13] = Inhibition of His-tagged recombinant human HDAC1 expressed in baculovirus infected insect cells using SIRT1 deacetylase substrate incubated for 30 mins by Luminescence Glo assay
[14] = target: T4, Protein deacetylase HDAC6 (Homo sapiens, UniProt Q9UBN7); assay: Inhibition of HDAC6 derived from human HeLa cell nuclear extract using Boc-Lys(Ac)-AMC as substrate by fluorescence based assay; assay type: cell-free
T4 sequence (Q9UBN7 whole entry): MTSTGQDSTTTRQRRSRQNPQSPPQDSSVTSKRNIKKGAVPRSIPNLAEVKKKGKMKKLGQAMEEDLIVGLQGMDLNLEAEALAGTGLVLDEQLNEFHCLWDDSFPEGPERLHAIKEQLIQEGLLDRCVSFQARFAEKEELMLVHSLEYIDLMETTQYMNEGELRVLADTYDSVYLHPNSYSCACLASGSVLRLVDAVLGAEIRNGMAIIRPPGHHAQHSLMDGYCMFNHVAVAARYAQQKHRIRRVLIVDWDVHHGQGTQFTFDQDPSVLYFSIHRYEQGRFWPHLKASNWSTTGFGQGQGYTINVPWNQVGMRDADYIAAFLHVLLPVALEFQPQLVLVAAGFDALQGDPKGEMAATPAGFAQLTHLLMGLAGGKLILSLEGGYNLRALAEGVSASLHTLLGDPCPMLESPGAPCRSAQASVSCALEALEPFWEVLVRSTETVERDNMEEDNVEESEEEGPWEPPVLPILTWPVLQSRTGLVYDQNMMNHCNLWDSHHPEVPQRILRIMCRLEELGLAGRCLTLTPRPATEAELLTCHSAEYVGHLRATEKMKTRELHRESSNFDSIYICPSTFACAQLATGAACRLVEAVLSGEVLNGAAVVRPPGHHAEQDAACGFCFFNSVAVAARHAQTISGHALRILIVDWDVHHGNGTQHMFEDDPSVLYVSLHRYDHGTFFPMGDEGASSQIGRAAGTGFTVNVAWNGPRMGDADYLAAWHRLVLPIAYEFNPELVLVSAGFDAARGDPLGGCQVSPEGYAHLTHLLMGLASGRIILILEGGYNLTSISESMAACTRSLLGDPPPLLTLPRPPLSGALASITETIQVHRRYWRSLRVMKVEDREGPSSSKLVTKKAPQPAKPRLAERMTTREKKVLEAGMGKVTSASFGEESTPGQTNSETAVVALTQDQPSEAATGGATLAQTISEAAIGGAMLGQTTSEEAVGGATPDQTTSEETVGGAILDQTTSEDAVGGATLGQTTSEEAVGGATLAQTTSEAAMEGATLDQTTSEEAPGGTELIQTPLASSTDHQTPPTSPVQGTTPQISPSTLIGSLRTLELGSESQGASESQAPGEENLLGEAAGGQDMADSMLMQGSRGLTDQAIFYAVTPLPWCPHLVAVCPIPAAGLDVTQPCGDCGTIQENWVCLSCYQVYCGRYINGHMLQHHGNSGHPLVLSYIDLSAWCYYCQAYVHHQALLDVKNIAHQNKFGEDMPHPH

Histone deacetylase 1 [15] = target: T3, Histone deacetylase 1; assay: Inhibition of HDAC1 derived from human HeLa cell nuclear extract using Boc-Lys(Ac)-AMC as substrate by fluorescence based assay; assay type: cell-free
[16] = target: T1, von Hippel-Lindau disease tumor suppressor/Histone deacetylase 3; assay: PROTAC activity at VHL/HDAC3 (unknown origin) by cell based assay
Target sequence in this assay (O15379 whole entry): as the sequence (O15379 whole entry, looked up) above
Target sequence in this assay (P40337 whole entry): as the sequence (P40337 whole entry, looked up) above

[17] = target: von Hippel-Lindau disease tumor suppressor/Histone deacetylase 2 (Homo sapiens, UniProt P40337+Q92769); assay: PROTAC activity at VHL/HDAC2 (unknown origin) by cell based assay
[18] = target: T2, von Hippel-Lindau disease tumor suppressor/Histone deacetylase 1; assay: PROTAC activity at VHL/HDAC1 (unknown origin) by cell based assay
[19] = target: T1, von Hippel-Lindau disease tumor suppressor/Histone deacetylase 3; assay: PROTAC activity at VHL/HDAC3 in human MDA-MB-468 cells assessed as induction of HDAC3 degradation incubated for 14 hrs by Western blot analysis; assay type: cell-based
Target sequence in this assay (O15379 whole entry): as the sequence (O15379 whole entry, looked up) above
Target sequence in this assay (P40337 whole entry): as the sequence (P40337 whole entry, looked up) above

Histone deacetylase 1 [20] = target: T3, Histone deacetylase 1; assay: Inhibition of HDAC1 (unknown origin) incubated for 30 mins by fluorescence based assay
[21] = target: T4, Protein deacetylase HDAC6; assay: Inhibition of HDAC6 (unknown origin) incubated for 30 mins by fluorescence based assay

T3 sequence (Q13547 whole entry): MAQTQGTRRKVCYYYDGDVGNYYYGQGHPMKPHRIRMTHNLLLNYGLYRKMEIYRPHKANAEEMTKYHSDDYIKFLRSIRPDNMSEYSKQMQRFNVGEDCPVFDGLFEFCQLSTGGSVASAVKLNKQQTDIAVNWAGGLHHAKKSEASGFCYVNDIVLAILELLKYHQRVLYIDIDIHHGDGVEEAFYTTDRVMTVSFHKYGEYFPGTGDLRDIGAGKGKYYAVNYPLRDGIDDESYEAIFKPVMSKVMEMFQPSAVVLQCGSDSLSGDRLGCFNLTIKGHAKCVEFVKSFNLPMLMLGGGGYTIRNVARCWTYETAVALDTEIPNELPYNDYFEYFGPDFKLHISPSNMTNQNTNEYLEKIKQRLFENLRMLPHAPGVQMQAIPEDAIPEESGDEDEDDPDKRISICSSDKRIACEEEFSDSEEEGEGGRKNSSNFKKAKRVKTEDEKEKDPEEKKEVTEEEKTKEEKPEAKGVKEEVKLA
T2 sequence (Q13547 whole entry): as above
T2 sequence (P40337 whole entry): as the sequence (P40337 whole entry, looked up) above
Chain of Protein cereblon/Histone deacetylase 3 (O15379 whole entry): as the sequence (O15379 whole entry, looked up) above
Chain of Protein cereblon/Histone deacetylase 3 (Q96SW2 whole entry): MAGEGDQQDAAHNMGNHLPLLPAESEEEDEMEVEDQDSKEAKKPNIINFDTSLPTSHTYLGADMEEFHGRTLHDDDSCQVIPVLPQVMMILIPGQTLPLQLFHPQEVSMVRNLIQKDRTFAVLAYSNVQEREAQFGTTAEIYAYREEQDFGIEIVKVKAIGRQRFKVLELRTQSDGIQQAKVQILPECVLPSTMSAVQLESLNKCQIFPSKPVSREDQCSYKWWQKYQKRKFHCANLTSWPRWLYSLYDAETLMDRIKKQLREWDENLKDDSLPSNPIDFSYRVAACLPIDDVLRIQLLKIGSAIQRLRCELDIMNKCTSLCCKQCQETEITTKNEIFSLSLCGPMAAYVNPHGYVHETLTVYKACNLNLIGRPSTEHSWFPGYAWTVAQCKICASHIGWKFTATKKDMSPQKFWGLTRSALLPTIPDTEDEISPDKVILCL
Chain of von Hippel-Lindau disease tumor suppressor/Histone deacetylase 2 (Homo sapiens) (P40337 whole entry, looked up): as the sequence (P40337 whole entry, looked up) above
Chain of von Hippel-Lindau disease tumor suppressor/Histone deacetylase 2 (Homo sapiens) (Q92769 whole entry, looked up): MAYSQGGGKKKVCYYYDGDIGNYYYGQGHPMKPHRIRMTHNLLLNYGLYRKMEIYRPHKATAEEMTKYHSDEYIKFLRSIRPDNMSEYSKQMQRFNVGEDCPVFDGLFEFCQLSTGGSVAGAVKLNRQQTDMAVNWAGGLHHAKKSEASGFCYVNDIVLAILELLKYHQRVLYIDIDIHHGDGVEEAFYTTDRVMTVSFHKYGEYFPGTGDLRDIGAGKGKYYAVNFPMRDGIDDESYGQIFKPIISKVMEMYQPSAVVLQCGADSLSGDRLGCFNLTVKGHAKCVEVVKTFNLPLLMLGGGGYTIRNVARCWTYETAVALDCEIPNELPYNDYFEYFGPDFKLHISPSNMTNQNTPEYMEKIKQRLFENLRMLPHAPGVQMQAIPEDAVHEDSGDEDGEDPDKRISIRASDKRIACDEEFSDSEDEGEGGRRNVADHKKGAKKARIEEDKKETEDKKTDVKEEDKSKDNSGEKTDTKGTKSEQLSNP
Chain of von Hippel-Lindau disease tumor suppressor/Histone deacetylase 1 (Homo sapiens) (P40337 whole entry, looked up): as the sequence (P40337 whole entry, looked up) above
Chain of von Hippel-Lindau disease tumor suppressor/Histone deacetylase 1 (Homo sapiens) (Q13547 whole entry, looked up): as the sequence (Q13547 whole entry) above
Chain of Protein cereblon/Protein deacetylase HDAC6 (Q96SW2 whole entry, one chain of several): as the sequence (Q96SW2 whole entry) above
Chain of Histone deacetylase 2 (Q92769 whole entry): as the sequence (Q92769 whole entry, looked up) above
Chain of Protein cereblon/Histone deacetylase 2 (Q92769 whole entry): as the sequence (Q92769 whole entry, looked up) above
Chain of Protein cereblon/Histone deacetylase 2 (Q96SW2 whole entry): as the sequence (Q96SW2 whole entry) above
Chain of von Hippel-Lindau disease tumor suppressor/Histone deacetylase 2 (Q92769 whole entry): as the sequence (Q92769 whole entry, looked up) above
Chain of von Hippel-Lindau disease tumor suppressor/Histone deacetylase 2 (P40337 whole entry): as the sequence (P40337 whole entry, looked up) above
Chain of Protein cereblon/Histone deacetylase 1 (Q13547 whole entry): as the sequence (Q13547 whole entry) above
Chain of Protein cereblon/Histone deacetylase 1 (Q96SW2 whole entry): as the sequence (Q96SW2 whole entry) above

Activity [1]: 50%
Activity [2]: 50%
Activity [3]: 50%
IC50 [4]: 16.8 µM
Structure (SMILES): Cc1ncsc1-c1ccc(CNC(=O)[C@@H]2C[C@@H](O)CN2C(=O)[C@@H](NC(=O)CCCCCCCCCCC(=O)Nc2ccc(C(=O)Nc3ccccc3N)cc2)C(C)(C)C)cc1

Ratio IC50 (Homo sapiens): 26
IC50 (Histone deacetylase 1 [5]): 190 nM
IC50 (HeLa): 230 nM
Structure (SMILES): COc1ccc2cc(C(=O)Oc3cccc(/C=C/C(=O)NO)c3)c(=O)oc2c1

IC50 (Histone deacetylase 1 [6]): 18.7 µM
IC50 (Histone deacetylase 2): 26 µM
IC50 [7]: 560 nM
Structure (SMILES): Nc1ccccc1NC(=O)c1ccc2ncccc2c1

IC50 (Histone deacetylase 1 [8]): 10 nM
Structure (SMILES): Cc1ccc(C(=O)Nc2nc(C(=O)NO)co2)cc1

IC50 [9]: 174 nM
IC50 [10]: 27 nM
IC50 [11]: 27 nM
IC50 [12]: 248 nM
Structure (SMILES): O=C(CCCCCCNC(=O)c1ccc(NC(=O)COCCOCCNC(=O)COc2cccc3c2C(=O)N(C2CCC(=O)NC2=O)C3=O)cc1)NO (centres undefined)

Structure (SMILES): CCCCNNC(=O)c1ccc(-c2ccccc2)cc1
IC50 [13]: 90 nM

IC50 [14]: 24 nM
IC50 (Histone deacetylase 1 [15]): 82 nM
Structure (SMILES): CC(C)n1cnc2c(-c3cccc(OCCCC(=O)NO)c3)nc(N3CCOCC3)nc21

IC50 [16]: 350 nM
IC50 [17]: 1550 nM
IC50 [18]: 650 nM
EC50 [19]: 42 nM
Structure (SMILES): CCCNNC(=O)c1ccc(-c2ccc(NC(=O)CCCCCCC(=O)N[C@H](C(=O)N3C[C@H](O)C[C@H]3C(=O)N[C@@H](C)c3ccc(-c4scnc4C)cc3)C(C)(C)C)cc2)cc1

IC50 (Histone deacetylase 1 [20]): 1.4 nM
IC50 [21]: 4.6 nM
Structure (SMILES): O=C(CCCCCCC(=O)Nc1nc2c(s1)C[C@@H](NC(=O)c1cccc3ccccc13)CC2)NO
